Read-outs that look alike come from different tables or passages of the source.
Tests used:
CXCR4 positive tumors = settings: PET, xenograft mouse model, RBC binding blocked with non-radioactive 4-FBz-T140, ref [31]; cited from earlier work
Description: (§1) However, due to the complex and time-consuming radiolabeling procedure, they developed another analog, (Al[^18F]NOTA-T140), using the Al-F me ...

red blood cells (RBCs) = settings: blocked by non-radioactive standard 4-FBz-T140 peptide; ref [31]; cited from earlier work
Description: as §1

CXCR4 = tested on: CXCR4; parameters: method as in earlier work; settings: previously reported, ref [24],[31],[48],[49],[50],[51] (collective), cited from earlier work
HIV = settings: 4-fluorobenzoyl group introduced on T140-based pharmacophore; ref [30]; cited from earlier work
Description: Numerous truncated peptide analogs that mimic the function of CXCL12 have been reported. Tamamura et al. described the synthesis of novel 14-amino acid peptide inhibitors (T134, T140) based on the structure of their previously reported 18-amino acid peptide, T22, for inhibitory activity against HIV-1 entry. […] However, due to the complex and time-consuming radiolabeling procedure, they developed another analog, (Al[^18F]NOTA-T140), using the Al-F me ...

[1] = Hydrolysis of 6-[^18F]SFPy to 6-[^18F]fluoronicotinic acid (HPLC); assay type: physicochemical; settings: room temperature, 4h post radiolabeling; HPLC method B (Vydac C-4), radio detector
Method: Figure 2 HPLC analysis (method B) of 6-[^18F]SFPy (A) Crude reaction mixture; (B) Crude reaction mixture co-injected with the non-radioactive standard; (C) Pure; (D) Pure co-injected with the non-radioactive standard; (E) After 4h of labeling at room temperature co-injected with the non-radioactive standard, 6-fluoronicotinic acid. Solid line, in-line radio detector; dotted line, UV detector at 254 nm. Retention time (min): 6-[^18F]SFPy, 4.0; compound 4, 4.1; 6-[^18F]fluoronicotinic acid, 2.8.
Method B (HPLC conditions for analysis): Vydac C-4 (2) column (4.6 × 150 mm, 5 µ), mobile phase: 15–22% B in 10 min; B = acetonitrile (0.1% TFA), A = Water (0.1% TFA), flow rate of 1 mL/min; tR = ~8 min.

4-[^18F]fluorobenzoyl-TN14003 [4-[^18F]FBz-T140]
tumor-to-background ratios (in words) (CXCR4 positive tumors): high tumor-to-background ratios | binding to red blood cells (in words) (red blood cells (RBCs)): elevated binding

4-fluorobenzoyl-TN14003 [4-FBz-T140]
IC50 (CXCR4; first of two values printed for this analog): 0.99 nM | IC50 (CXCR4; second of two values printed for this analog): 1.75 nM | anti-HIV activity (in words) (HIV): enhancement of anti-HIV activity

O=C(ON1C(=O)CCC1=O)c1ccc([18F])nc1 [6-[^18F]SFPy]
conversion to 6-[^18F]fluoronicotinic acid (slow hydrolysis) [1]: 15%

Source: publication PMC7504725, “Automated Synthesis of Fluorine-18 Labeled CXCR4 Ligand via the Conjugation with Nicotinic Acid N-Hydroxysuccinimide Ester (6-[^18F]SFPy)” (Molecules, 2020)
